Laboratory results reported in patent US11597917B2, “In vitro and in vivo enrichment strategy targeting lymphocytes derived from vector transduced HSCs for therapy of disorders” (THE MEDICAL COLLEGE OF WISCONSIN, INC., priority 2017, dated 2023).

Legend:
Jurkat cells [1] = experiment: In vitro enrichment of transduced Jurkat cells with MPA: vector copy number per genome by qPCR; format: cell-based; settings: Jurkat cells transduced with dual promoter vector; 0.5 μM MPA vs DMSO, 16 days; FIG. 4C
Description: (§1) In this Example, Jurkat cells (immortalized T cells) are used. […] 3 cell lines were generated by transducing Jurkat cells with the vectors described or with protamine sulphate only as a mock. VCN/genome was adjusted by dilution of the transduced cells with mock transduced cells. Each of these were seeded in 4 replicates and either treated with DMSO (vehicle) or 0.5 μM MPA. Fresh media with drug or vehicle was added after centrifuging the cells and discarding old media every two days. Samples were taken for cell counts. After 16 days of treatment, cells were reseeded for recovery in fresh media for a total of four days, after which they were counted and reseeded again for two days for α-gal A activity assay or one day for gDNA.
VCN was determined by comparison to a standard curve using a qPCR based method and normalized to the number of beta actin (ACTB) copies to determine a per genome value. Patterned bars in the chart refer to samples treated with DMSO and solid bars refer to those treated with MPA.

Jurkat cells [2] = experiment: α-gal A activity (4-MUG substrate) in lysates and supernatants of transduced Jurkat cells after MPA enrichment; format: cell-based; settings: Jurkat cells transduced with dual promoter vector; 0.5 μM MPA, 16 days, then recovery; FIGS. 4E and 4F
Description: as §1

Jurkat cells [3] = experiment: Glucocerebrosidase activity in supernatant of transduced Jurkat cells after MPA enrichment (fluorometric assay); format: cell-based; settings: cells transduced with GBA+(IY) virus and treated with MPA (0.5 μM, 16 days); FIG. 13
Description: Jurkat cells were transduced with lentivirus at an MOI of ˜0.1-0.2. Cells were cultured for at least 2 weeks prior to measuring baseline vector copy number. Cell lines for each of LV/GBA+eGFP and LV/GBA+(IY), or non-transduced cells were produced in this way. To measure enrichment, testing was carried out as described in Example 2. Briefly, cells at known densities were seeded in quadruplicate for each cell line, and maintained in culture for 16 days with either vehicle (DMSO) or 0.5 μM MPA, with media being replaced every two days. After treatment, cells were diluted and recovered for 4-8 days. gDNA was extracted from cells sampled from each well, and vector copy number analyses were carried out using qPCR. Cells from each well were also seeded at known and equal densities for 72 hours, after which supernatant was collected, cleared of cells and debris, and glucocerebrosidase activity measured using a fluorometric assay. Briefly, supernatants were incubated for 1 hour with substrate solution containing 4-methylumbelliferyl-beta-D-glucopyranoside (15 mM). The reaction was quenched with 0.1M glycine at pH 10 and fluorescence of the reaction product quantified against a calibration curve of the product.

Fabry mice = experiment: In vivo enrichment in Fabry mice engrafted with transduced HSPCs: observation of toxicities; settings: 0.15% MMF medicated chow ad libitum, 2 months of treatment
Description: Briefly, male and female Fabry mice aged 2-5 months of age are treated with 5-fluorouracil (5-FU) to deplete bone marrow cells and enrich for HSPCs. Four days after treatment these mice are euthanized, and bone marrow is isolated from femurs and tibia, and processed for transduction. Cells are cultured in stem cell media and transduced using lentivirus described above for 12 hours at a multiplicity of infection (MOI) of 10. Transduced cells are then harvested and prepared for administration to recipient mice. Recipients are male Fabry mice aged approximately 2 months. These are irradiated prior to engrafting transduced cells to deplete their own hematopoietic system. Some cells are retained in culture for an extra 48 hours to assay transduction. Mice are kept on prophylactic antibiotics as support during immune recovery. Engraftment of transduced cells is assessed by measuring VCN/genome in circulation using a qPCR-based assay and comparing to a standard curve, and by measuring plasma α-gal A activity. MMF medicated chow may be started after stable engraftment has been achieved, typically after 4 months. […] A baseline bleed was done to confirm engraftment and the mice were given 0.15% MMF capsule (TEVA generics, Israel) medicated chow ad libitum, and bled every 15 days to observe changes in plasma α-gal A activity, which is a measure of enrichment. […]

SMILES	increase in the vector copy number of the total population per genome (Jurkat cells [1])	α-gal A activity in cell lysates and culture supernatants (Jurkat cells [2])	enzyme activity in cell culture supernatant (Jurkat cells [3])	drug-related toxicities (Fabry mice)
COc1c(C)c2c(c(O)c1C/C=C(\C)CCC(=O)O)C(=O)OC2 [MPA, mycophenolic acid]	~8 fold	corresponding increase in α-gal A activity	increased enzyme activity	
COc1c(C)c2c(c(O)c1C/C=C(\C)CCC(=O)OCCN1CCOCC1)C(=O)OC2 [MMF, mycophenolate mofetil]				No drug-related toxicities were observed
